Experimental findings from patent US12673961B2 (Agios Pharmaceuticals, Inc., priority 2022, dated 2026) are described below.

In general, AC50 refers to the concentration at which the activity in the assay is half-maximal.

Bounds are passed on as bounds.

One experiment deals with T1, human PAH with the R408W mutation (Homo sapiens, UniProt P00439, R408W).
T1 construct: expressed in transfected cells
T1 sequence (P00439 1-452 R408W): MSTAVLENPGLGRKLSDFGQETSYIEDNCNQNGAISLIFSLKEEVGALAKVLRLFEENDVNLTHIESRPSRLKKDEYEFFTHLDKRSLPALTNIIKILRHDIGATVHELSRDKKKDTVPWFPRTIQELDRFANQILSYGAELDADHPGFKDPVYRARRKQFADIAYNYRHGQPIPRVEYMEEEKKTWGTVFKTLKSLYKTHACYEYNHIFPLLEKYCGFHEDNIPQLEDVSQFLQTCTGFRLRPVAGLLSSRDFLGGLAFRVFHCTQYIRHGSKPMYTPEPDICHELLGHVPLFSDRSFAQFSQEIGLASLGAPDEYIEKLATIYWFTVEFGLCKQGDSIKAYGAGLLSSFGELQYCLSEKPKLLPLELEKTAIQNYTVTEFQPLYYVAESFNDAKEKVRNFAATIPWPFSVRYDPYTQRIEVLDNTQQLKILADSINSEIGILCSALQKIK
Description: Cell Based Phenylalanine Flux Assay.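 Also: Ten-point dose curve from 2-fold serial dilutions, run in duplicate at 0.5% DMSO final, tracer step used 20 µM sepiapterin and 800 µM labeled phenylalanine.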 Details: scale not given here. Conditions: A375 cells expressing R408W PAH; 24 hrs with compound, then 20 μM sepiapterin and 800 μM 13C9,15N-Phenylalanine for 4 hours; 13C-Tyrosine in media by LC-MS; average where tested multiple times.
In the case of `Cc1cccn2nc(C3c4nc[nH]c4CCN3C(=O)c3oc(C(C)(C)O)nc3C(F)(F)F)cc12` (stereo not drawn), the AC50 entry is “E, E”.

Regarding `Cc1ccn2nc(C3c4nc[nH]c4CCN3C(=O)c3oc(C(C)(C)O)nc3C(F)F)cc2c1` (stereo not drawn), the AC50 result is listed as “E, E”.

`FC(F)c1cccn2nc(C3c4nc[nH]c4CCN3c3nnc(-c4ccncn4)o3)cc12` (stereo not drawn): the half-maximal activity concentration (AC50) entry is on record as “E, E”.

The experiment is the same for the next values; noted with them: A375 cells expressing R408W PAH; 24 hrs with compound, then 20 μM sepiapterin and 800 μM 13C9,15N-Phenylalanine for 4 hours; 13C-Tyrosine in media by LC-MS; average where tested multiple times; read-out: AC50.
Regarding `Fc1cccc2cc([C@H]3c4nc[nH]c4CCN3c3ncccn3)nn12` (single isomer, unassigned), the concentration at half-maximal activity (AC50) was more than 5000 nM.

Take `O=C(c1cnc(-c2ncccn2)o1)N1CCc2[nH]cnc2[C@H]1c1cc2ccccn2n1` (single isomer, unassigned): the concentration at half-maximal activity (AC50) is 1000 to 5000 nM.

Take `COCc1ccc2c(C(=O)N3CCc4[nH]cnc4C3c3cc4cccc(F)n4n3)cnn2c1` (stereo not drawn): the AC50 lay within 1000 to 5000 nM.

For the compound `Fc1ccc(-c2nnc(N3CCc4[nH]cnc4C3c3cc4ccccn4n3)o2)nc1` (stereo not drawn), the AC50 is more than 5000 nM.

Regarding `Cc1c([C@@H]2c3nc[nH]c3CCN2C(=O)c2nnc(C(C)(C)O)o2)nn2ccccc12` (single isomer, unassigned), the concentration at half-maximal activity (AC50) was more than 5000 nM.

Staying with this experiment, now noted: A375 cells expressing human R408W PAH; 24 hrs compound incubation; 13C-Tyrosine by LC-MS; average where tested multiple times; read-out: AC50.
Consider `CC(C)(O)c1nc(C(F)F)c(C(=O)N2CCc3[nH]cnc3[C@H]2c2cc3ccc(C(F)(F)F)cn3n2)o1` [Example 1116, (S)-(4-(difluoromethyl)-2-(2-hydroxypropan-2-yl)oxazol-5-yl)(4-(6-(trifluoromethyl)pyrazolo[1,5-a]pyridin-2-yl)-6,7-dihydro-1H-imidazo [4,5-c]pyridin-5(4H)-yl)methanone], for which the AC50 is less than 500 nM.

As to `N#Cc1ncoc1C(=O)N1CCc2[nH]cnc2[C@H]1c1cc2ccccn2n1` (single isomer, unassigned) [Example 640], the half-maximal activity concentration (AC50) was 500 to 1000 nM.

For `Cc1cccc2cc([C@H]3c4nc[nH]c4CCN3C(=O)c3nnc(C4(C)CC4)o3)nn12` [Example 1318, (R)-(5-(1-methylcyclopropyl)-1,3,4-oxadiazol-2-yl)(4-(7-methylpyrazolo[1,5-a]pyridin-2-yl)-6,7-dihydro-1H-imidazo[4,5-c]pyridin-5(4H)-yl)methanone], the half-maximal activity concentration (AC50) is 1000 to 5000 nM.

As to `CC(C)(F)c1nnc(C(=O)N2CCc3[nH]cnc3[C@H]2c2cc3c(C(F)F)cccn3n2)o1` [Example 1350, (S)-(4-(4-(difluoromethyl)pyrazolo[1,5-a]pyridin-2-yl)-6,7-dihydro-1H-imidazo [4,5-c]pyridin-5(4H)-yl)(5-(2-fluoropropan-2-yl)-1,3,4-oxadiazol-2-yl)methanone], the AC50 was less than 500 nM.

In the case of `Cc1c(-c2nnc(C(=O)N3CCc4[nH]cnc4[C@H]3c3cc4cccc(C(F)(F)F)n4n3)o2)cnn1C` [Example 1190, (S)-(5-(1,5-dimethyl-1H-pyrazol-4-yl)-1,3,4-oxadiazol-2-yl)(4-(7-(trifluoromethyl)pyrazolo[1,5-a]pyridin-2-yl)-6,7-dihydro-1H-imidazo [4,5-c]pyridin-5(4H)-yl)methanone], the concentration at half-maximal activity (AC50) lay within 500 to 1000 nM.

On to `O=C(c1nnc(C2CC2)o1)N1CCc2[nH]cnc2[C@@H]1c1cc2cccc(Cl)n2n1` [Example 1136, (R)-(4-(7-chloropyrazolo [1,5-a]pyridin-2-yl)-6,7-dihydro-1H-imidazo[4,5-c]pyridin-5(4H)-yl)(5-cyclopropyl-1,3,4-oxadiazol-2-yl)methanone], for which the AC50 was 1000 to 5000 nM.

For the compound `COc1ccc(-c2nnc(C(=O)N3CCc4[nH]cnc4[C@H]3c3cc4c(F)cccn4n3)o2)nc1` [Example 788, (S)-(4-(4-fluoropyrazolo[1,5-a]pyridin-2-yl)-6,7-dihydro-1H-imidazo[4,5-c]pyridin-5(4H)-yl)(5-(5-methoxypyridin-2-yl)-1,3,4-oxadiazol-2-yl)methanone], the AC50 is less than 500 nM.

On to `Cc1cccn2nc([C@H]3c4nc[nH]c4CCN3C(=O)c3cnco3)cc12` [Example 769, (R)-(4-(4-methylpyrazolo [1,5-a]pyridin-2-yl)-6,7-dihydro-1H-imidazo[4,5-c]pyridin-5(4H)-yl)(oxazol-5-yl)methanone], for which the AC50 was more than 5000 nM.

The experiment is the same for the next values; noted with them: A375 cells expressing human R408W PAH; 24 hrs with compound, then sepiapterin and 13C9,15N-Phenylalanine for 4 hours; 13C-Tyrosine by LC-MS; average where tested multiple times; read-out: AC50.
Turning to `CC(C)c1cccn2nc([C@@H]3c4nc[nH]c4CCN3c3nnc(C4(C)CC4)o3)cc12` [Example 2229, (S)-2-(4-(4-isopropylpyrazolo [1,5-a]pyridin-2-yl)-1,4,6,7-tetrahydro-5H-imidazo [4,5-c]pyridin-5-yl)-5-(1-methylcyclopropyl)-1,3,4-oxadiazole], the concentration at half-maximal activity (AC50) is less than 500 nM.

Regarding `Cc1cccn2nc([C@@H]3c4nc[nH]c4CCN3c3nnc(-c4cccc(F)n4)o3)cc12` [Example 2361, (S)-2-(6-fluoropyridin-2-yl)-5-(4-(4-methylpyrazolo[1,5-a]pyridin-2-yl)-1,4,6,7-tetrahydro-5H-imidazo[4,5-c]pyridin-5-yl)-1,3,4-oxadiazole], the AC50 was less than 500 nM.

As to `FC(F)c1cccn2nc([C@H]3c4nc[nH]c4CCN3c3nnc(C(F)(F)F)o3)cc12` [Example 1766, (R)-2-(4-(4-(difluoromethyl)pyrazolo[1,5-a]pyridin-2-yl)-6,7-dihydro-1H-imidazo [4,5-c]pyridin-5(4H)-yl)-5-(trifluoromethyl)-1,3,4-oxadiazole], the half-maximal activity concentration (AC50) was in the range of 500 to 1000 nM.

Regarding `O=C(c1nnc(-c2ccn(C(F)(F)F)n2)o1)N1CCc2[nH]cnc2[C@H]1c1cc2cccc(Cl)n2n1` [Example 1508, (S)-(4-(7-chloropyrazolo [1,5-a]pyridin-2-yl)-6,7-dihydro-1H-imidazo[4,5-c]pyridin-5(4H)-yl)(5-(1-(trifluoromethyl)-1H-pyrazol-3-yl)-1,3,4-oxadiazol-2-yl)methanone], the concentration at half-maximal activity (AC50) was less than 500 nM.

Consider `Clc1cccn2nc([C@@H]3c4nc[nH]c4CCN3c3nnc(-c4ccncn4)o3)cc12` [Example 2182, (S)-2-(4-(4-chloropyrazolo [1,5-a]pyridin-2-yl)-1,4,6,7-tetrahydro-5H-imidazo[4,5-c]pyridin-5-yl)-5-(pyrimidin-4-yl)-1,3,4-oxadiazole], for which the AC50 is 500 to 1000 nM.

In the case of `O=C(c1nnc(C2CCC2)o1)N1CCc2[nH]cnc2[C@@H]1c1cc2c(F)cccn2n1` [Example 1558, (R)-(5-cyclobutyl-1,3,4-oxadiazol-2-yl)(4-(4-fluoropyrazolo[1,5-a]pyridin-2-yl)-6,7-dihydro-1H-imidazo[4,5-c]pyridin-5(4H)-yl)methanone], the AC50 lay in the range of 1000 to 5000 nM.

As for `O=C(c1nnc(C2CC2)o1)N1CCc2[nH]cnc2[C@@H]1c1cc2c(Br)cccn2n1` [Example 1909, (R)-(4-(4-bromopyrazolo [1,5-a]pyridin-2-yl)-1,4,6,7-tetrahydro-5H-imidazo [4,5-c]pyridin-5-yl)(5-cyclopropyl-1,3,4-oxadiazol-2-yl)methanone], the half-maximal activity concentration (AC50) is 1000 to 5000 nM.

With `FC(F)(F)Oc1cccn2nc([C@H]3c4nc[nH]c4CCN3c3nnc(C(F)(F)F)o3)cc12` [Example 2252, (R)-2-(4-(4-(trifluoromethoxy)pyrazolo[1,5-a]pyridin-2-yl)-1,4,6,7-tetrahydro-5H-imidazo[4,5-c]pyridin-5-yl)-5-(trifluoromethyl)-1,3,4-oxadiazole], the AC50 was in the range of 500 to 1000 nM.

Regarding `Cc1ccc2cc([C@H]3c4nc[nH]c4CCN3C(=O)c3nnc(-c4cnn(C)c4)o3)nn2c1` [Example 2381, (R)-(5-(1-methyl-1H-pyrazol-4-yl)-1,3,4-oxadiazol-2-yl)(4-(6-methylpyrazolo[1,5-a]pyridin-2-yl)-6,7-dihydro-1H-imidazo[4,5-c]pyridin-5(4H)-yl)methanone], the AC50 is more than 5000 nM.

In the case of `Cc1cccn2nc([C@H]3c4nc[nH]c4CCN3C(=O)c3nnc(-c4ccccn4)s3)cc12` [Example 1971, (R)-(4-(4-methylpyrazolo [1,5-a]pyridin-2-yl)-1,4,6,7-tetrahydro-5H-imidazo[4,5-c]pyridin-5-yl)(5-(pyridin-2-yl)-1,3,4-thiadiazol-2-yl) methanone], the AC50 was more than 5000 nM.

Turning to `O=C(c1nnc(-c2cnccn2)o1)N1CCc2[nH]cnc2[C@H]1c1cc2cccc(C(F)F)n2n1` [Example 1535, (S)-(4-(7-(difluoromethyl)pyrazolo[1,5-a]pyridin-2-yl)-6,7-dihydro-1H-imidazo[4,5-c]pyridin-5(4H)-yl)(5-(pyrazin-2-yl)-1,3,4-oxadiazol-2-yl)methanone], the AC50 lay within 500 to 1000 nM.

`Fc1cccn2nc([C@@H]3c4nc[nH]c4CCN3c3nnc(C(F)(F)F)o3)cc12` [Example 1823]: the AC50 fell in the range of 500 to 1000 nM.

`O=C(c1nnc(C2CCC2)o1)N1CCc2[nH]cnc2[C@@H]1c1cc2ccccn2n1` [Example 1515, (R)-(5-cyclobutyl-1,3,4-oxadiazol-2-yl)(4-(pyrazolo[1,5-a]pyridin-2-yl)-6,7-dihydro-1H-imidazo[4,5-c]pyridin-5(4H)-yl)methanone]: the AC50 was more than 5000 nM.

In the case of `Cc1cccnc1-c1nnc(N2CCc3[nH]cnc3[C@H]2c2cc3cccc(Cl)n3n2)o1` [Example 2307, (S)-2-(4-(7-chloropyrazolo [1,5-a]pyridin-2-yl)-1,4,6,7-tetrahydro-5H-imidazo [4,5-c]pyridin-5-yl)-5-(3-methylpyridin-2-yl)-1,3,4-oxadiazole], the AC50 is less than 500 nM.
